# Measured values published in patent publication US8017398B2, “Method for assaying protein-protein interaction” (Life Technologies Corporation, priority 2003, dated 2011).
# Assays:
# ADRB2 = molecular target: T1, ADRB2 (Homo sapiens, UniProt P07550); test: chemiluminescence β-galactosidase reporter assay, ADRB2-tTA + ARRB2-TEV-NIa protease, clone 41 cells; type: cell-based; details: ADRB2-tTA low efficiency cleavage site
# T1 construct: to produce three, full length constructs encoding fusion proteins; expressed in transfected cells; host or cells: HEK-293T and clone 41 (HEK-293T derivative)
# [1] = molecular target: T2, human Type I Interferon Receptor (Homo sapiens, UniProt P17181+P48551); test: IFNAR1-GAL4-NF-κB + IFNAR2.2-TEV luciferase reporter assay, CHO-K1 cells; type: cell-based, hamster; details: control pcDNA3 plasmid
# T2 construct: expressed in transfected cells; host or cells: CHO-K1
# T2 sequence (P17181 28-557): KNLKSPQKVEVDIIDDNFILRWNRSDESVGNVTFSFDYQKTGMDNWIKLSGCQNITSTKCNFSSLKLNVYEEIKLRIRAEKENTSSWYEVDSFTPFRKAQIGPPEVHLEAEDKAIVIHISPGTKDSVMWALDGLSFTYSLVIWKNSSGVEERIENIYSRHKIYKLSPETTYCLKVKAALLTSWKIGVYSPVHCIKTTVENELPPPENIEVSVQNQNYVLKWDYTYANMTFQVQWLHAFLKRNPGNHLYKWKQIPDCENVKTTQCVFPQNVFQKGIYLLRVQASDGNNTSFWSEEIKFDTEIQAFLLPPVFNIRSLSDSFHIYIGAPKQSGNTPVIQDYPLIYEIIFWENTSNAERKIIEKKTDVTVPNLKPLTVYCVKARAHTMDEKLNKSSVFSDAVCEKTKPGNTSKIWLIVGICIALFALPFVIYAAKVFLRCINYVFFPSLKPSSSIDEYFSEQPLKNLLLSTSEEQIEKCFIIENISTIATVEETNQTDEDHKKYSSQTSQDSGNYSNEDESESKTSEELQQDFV
# T2 sequence (P48551 27-515): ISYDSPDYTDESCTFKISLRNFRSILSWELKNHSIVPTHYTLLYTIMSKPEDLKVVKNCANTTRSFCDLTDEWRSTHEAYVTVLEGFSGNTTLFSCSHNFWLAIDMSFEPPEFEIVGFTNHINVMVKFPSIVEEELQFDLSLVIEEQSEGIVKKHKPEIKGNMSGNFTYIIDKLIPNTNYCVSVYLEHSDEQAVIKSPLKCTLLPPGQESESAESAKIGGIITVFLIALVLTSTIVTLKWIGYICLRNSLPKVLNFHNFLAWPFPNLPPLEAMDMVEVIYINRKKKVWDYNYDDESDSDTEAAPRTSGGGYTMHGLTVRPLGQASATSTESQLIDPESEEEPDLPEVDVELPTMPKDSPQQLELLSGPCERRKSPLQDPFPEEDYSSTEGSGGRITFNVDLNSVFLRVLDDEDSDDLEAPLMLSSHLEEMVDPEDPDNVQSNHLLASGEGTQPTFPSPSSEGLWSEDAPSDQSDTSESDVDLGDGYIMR
# T1 sequence (P07550 whole entry, the tested form may be a part): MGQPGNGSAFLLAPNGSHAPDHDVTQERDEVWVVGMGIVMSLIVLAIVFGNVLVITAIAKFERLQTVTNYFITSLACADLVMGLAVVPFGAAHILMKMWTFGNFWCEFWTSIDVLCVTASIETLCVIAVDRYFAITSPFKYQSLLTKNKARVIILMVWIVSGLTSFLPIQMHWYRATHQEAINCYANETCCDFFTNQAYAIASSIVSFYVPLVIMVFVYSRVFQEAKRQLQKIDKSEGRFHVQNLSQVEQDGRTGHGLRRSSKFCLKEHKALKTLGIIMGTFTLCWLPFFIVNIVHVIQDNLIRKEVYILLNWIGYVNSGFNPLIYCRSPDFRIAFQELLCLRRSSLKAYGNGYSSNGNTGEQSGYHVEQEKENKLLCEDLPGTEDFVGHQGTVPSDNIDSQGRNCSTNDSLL
Compound,"induction of reporter gene activity by agonist of another GPCR (P2Y1, P2Y2) (ADRB2)",effect on reporter gene activity in cells transfected with the reporter and control plasmids [1]
Nc1ncnc2c1ncn2[C@@H]1O[C@H](COP(=O)(O)OP(=O)(O)OP(=O)(O)O)[C@@H](O)[C@H]1O [ATP],Stimulation of another GPCR pathway was irrelevant,
IFN-α,,no effect
